According to publication PMC10974622, “Hybrid Peptide-Alkoxyamine Drugs: A Strategy for the Development of a New Family of Antiplasmodial Drugs” (Molecules, 2024):
Like-named read-outs stand apart in the source and are kept apart here. *1 amine or outer side, *2 acyl side, *3 side chain or, on linkers, in order; H or OH if unused. Where a SMILES comes first, the peptide text is derived from it. [ ]: non-standard residue; d: D form. The star is where a group is joined. Suc = O=C(CCC(=O)[*:2])[*:1]; Boc = CC(C)(C)OC(=O)*; OBn = c1ccc(CO*)cc1

Columns and labels:
[1] = test system: P. falciparum strain F32-ART (artemisinin-resistant); assay: microbe, parasite or virus in culture; assay type: cell-based, Plasmodium falciparum; details: for Selectivity Index CC50/IC50: cytotoxicity (Vero cells)/antiplasmodial activity (F32-ART) ratio
Text: The antimalarial activity of peptide-alkoxyamine hybrids was first evaluated in the in vitro antiproliferative test (IC50) using the artemisinin-resistant strain F32-ART (Table 2, Table S1). The roles of the N-substitution of the alkoxyamine moiety (TEMPO- or DBNO-based, for example, A3L/A8L, line 1/line 10), of the configuration (L or D of the peptide, A3L/A3D, line 1/line 2), of the N-protection of the peptide (A3L/A4L or A5L, line 1/ lines 3 and 5) were examined. According to standard rules in the malaria field, only molecules having IC50 values below 1 μM were considered active.
The F32-ART (artemisinin-resistant) strain and the F32-TEM (artemisinin-sensitive strain) were cultured according to Trager and Jensen in RPMI 1640 medium (Fisher Scientific, Illkirch, France) supplemented with 5% human serum (Etablissement français du Sang, Toulouse, France) at 2% hematocrit with type O human blood (Etablissement français du Sang, Toulouse, France), 37 °C, and 5% CO2 in a humidified atmosphere.
(§1) IC50 values corresponding to 50% inhibition of P. falciparum growth were determined by SYBR Green assay, and the assessment of cytotoxicity was performed on Vero cells (cell line from the kidney of a normal adult African green monkey), as previously published. The selectivity index corresponded to the cytotoxicity/activity ratio.

Vero cells = details: cited from earlier work
in vitro = assay type: cell-based, African green monkey; details: Cytotoxicity CC50
Procedure: as §1

[2] = Kinetic analysis of alkoxyamine bond homolysis by EPR; assay type: physicochemical; details: Equation (2), A = 2.4 · 10^14 s^−1
Procedure: The kinetic homolysis for peptide-alkoxyamines reported in Table 1 was recorded in EPR using two solvents, tert-butylbenzene (t-BuPh) or an n-propanol:water (1:1, v:v) mixture. The growth of nitroxide was recorded in the presence of an alkyl radical scavenger, i.e., O2 here, to suppress the back reaction (kc in Scheme 4), as already reported.
Homolysis rate constants kd are given by Equation (1) ([nitroxide]∞ = [alkoxyamine]0 = 0.1 mM), and the subsequent activation energy values Ea are given by Equation (2), as follows:(1) lnnitroxide∞−nitroxidet/nitroxide∞=−kd·t (2) Ea=−RTlnkd/A

F32-ART parasites = assay: Parasitemia monitoring and parasite morphology upon drug exposure, F32-ART ring-stage parasites; assay type: cell-based, Plasmodium falciparum; details: 48 h exposure
Procedure: The effect of hybrid compounds against Plasmodium parasites was assessed by the microscopic examination of parasite morphology upon drug exposure. For this purpose, parasites were synchronized at 0–4 h age by percoll-sorbitol treatment, 0–24 h age by sorbitol treatment, or at schizont stage by percoll treatment at the start of the experiment. Different treatment schedules were tested. In the case of multiple doses, parasite cultures were washed before each new drug addition.

[3] = test system: F32-ART parasites at the quiescent stage; assay: Quiescent-stage Survival Assay (QSA); assay type: cell-based, Plasmodium falciparum; details: 700 nM DHA, compound at 7 µM
Procedure: In this assay, parasites were exposed to dihydroartemisinin (DHA) alone to induce quiescence, prior the addition of the drug to be tested for 48 h, and then the parasite recrudescence was monitored over a maximum of 4 weeks. Activity against quiescent parasites was evidenced by a delay in recrudescence time over 6 days between the conditions “DHA 6 h / DHA 48 h” and “DHA 6 h/(DHA + molecule) 48 h”. Atovaquone was used as a positive control, and its activity against quiescent parasites was here confirmed, as expected, by an extended delay of 11 days in recrudescence time (Figure 5). By contrast, no activity of A8L and A3L against quiescent parasites was evidenced in the QSA, with similar recrudescence time between the conditions “DHA 6 h/DHA 48 h” and “DHA 6 h/(DHA + molecule) 48 h”. […] To understand this phenomenon, we explored the parasite response during treatment with these hybrid compounds.
The QSA was performed according to Reyser et al.. Briefly, ART-resistant ring-stage parasites at 3% parasitemia were exposed for 6 h to 700 nM of DHA (dihydroartemisinin) to induce quiescence or were exposed to no drugs (control condition). After that, the compound to be tested was added in both conditions […]. At the end of the treatment, the drugs were washed off with RPMI-1640, and parasites were replaced in drug-free conditions. Blood smears were performed to follow parasitemia until the day the cultures reached their starting parasitemia, defined as the recrudescence day. If after 30 days no parasite recrudescence was observed, then the data were censored. Data analysis was performed using Kaplan–Meier survival curves. Statistical significance was ascertained by using a log-rank (Mantel-Cox) test using GraphPad Prism 7 software (San Diego, CA, USA).

[4] = strain F32-ART, SYBR Green assay, mean ± SEM of 3 to 6 experiments, read-out: Antiplasmodial Activity IC50
[5] = Plasmodium falciparum, F32, read-out: Antiplasmodial Activity IC50, strain F32-ART, SYBR Green assay, mean ± SEM of 3 to 6 experiments
[6] = read-out: Antiplasmodial Activity IC50, strain F32-ART, SYBR Green assay, mean ± SEM of 3 to 6 experiments

Row | Compound | IC50 [1, 4] | CC50 (Vero cells) | CC50 (in vitro; African green monkey) | other results
1 | CC(C)[C@H](NC(=O)[C@H](Cc1ccccc1)NC(=O)CCC(=O)O)C(=O)N[C@@H](Cc1ccccc1)C(=O)O [P10L] (Suc-Phe-Val-Phe-OH) | > 50 µM | > 50 µM |  | 
2 | CC(ON(C(C)(C)C)C(C)(C)C)c1ccc(NC(=O)[C@@H](Cc2ccccc2)NC(=O)[C@H](NC(=O)[C@@H](Cc2ccccc2)NC(=O)OC(C)(C)C)C(C)C)cc1 (stereo partly drawn) [A8D] |  |  | > 50 µM | IC50 [1, 5]: 50 µM; activation energy Ea ([2]; in t-BuPh): 28.94 kcal/mol; activation energy Ea ([2]; in water/n-PrOH 1/1 v/v): 28.32 kcal/mol
3 | CC(C)[C@H](NC(=O)[C@H](Cc1ccccc1)NC(=O)OC(C)(C)C)C(=O)N[C@@H](Cc1ccccc1)C(=O)OCc1ccccc1 [P6L] (Boc-Phe-Val-Phe-OBn) | > 50 µM |  | > 50 µM | 
4 | CC(C)[C@H](NC(=O)[C@H](Cc1ccccc1)NC(=O)OC(C)(C)C)C(=O)N[C@@H](Cc1ccccc1)C(=O)O [P7L, Boc-L-Phe-L-Val-L-Phe–OH] (Boc-Phe-Val-Phe-OH) | > 50 µM | > 50 µM |  | 
5 | CC(C)[C@H](NC(=O)[C@@H](N)Cc1ccccc1)C(=O)N[C@@H](Cc1ccccc1)C(=O)O [P18L] (H-Phe-Val-Phe-OH) | > 5 µM | > 25 µM |  | 
6 | CC(ON1C(C)(C)CCCC1(C)C)c1ccc(NC(=O)[C@@H](Cc2ccccc2)NC(=O)[C@H](NC(=O)[C@H](N)Cc2ccccc2)C(C)C)cc1 (stereo partly drawn) [A5D] |  |  |  | Selectivity Index CC50/IC50 [1]: 1.0; IC50 [1, 6]: 2.25 ± 0.17 µM
7 | CC(C)[C@@H](NC(=O)[C@@H](Cc1ccccc1)NC(=O)OC(C)(C)C)C(=O)N[C@H](Cc1ccccc1)C(=O)OCc1ccccc1 [P6D, Boc-D-Phe-D-Val-D-Phe–OBn] (Boc-[dF]-[dV]-[dF]-OBn) | > 50 µM |  | 3.2 ± 0.2 µM | 
8 | CC(C)[C@H](NC(=O)[C@@H](N)Cc1ccccc1)C(=O)N[C@@H](Cc1ccccc1)C(=O)O [P11L] (H-Phe-Val-Phe-OH) | > 10 µM | > 50 µM |  | 
9 | CC(ON(C(C)(C)C)C(C)(C)C)c1ccc(NC(=O)[C@@H](Cc2ccccc2)NC(=O)[C@@H](NC(=O)[C@H](Cc2ccccc2)NC(=O)OC(C)(C)C)C(C)C)cc1 (stereo partly drawn) [A8DL] |  |  | > 50 µM | IC50 [1, 5]: 0.87 ± 0.04 µM; Selectivity Index CC50/IC50 [1]: >57; activation energy Ea ([2]; in t-BuPh): 28.51 kcal/mol; activation energy Ea ([2]; in water/n-PrOH 1/1 v/v): 28.3 kcal/mol
10 | CC(ON1C(C)(C)CCCC1(C)C)c1ccccc1 (stereo not drawn) [compound 4, reference compound] |  |  |  | IC50 [1, 5]: > 10 µM
11 | CCc1ccc(NC(=O)[C@@H](Cc2ccccc2)NC(=O)[C@H](NC(=O)[C@H](N)Cc2ccccc2)C(C)C)cc1 [P22D] |  |  |  | CC50 (in vitro): 11 ± 1.6 µM
12 | C[C@H]1[C@@H](O)O[C@@H]2O[C@@]3(C)CC[C@H]4[C@H](C)CC[C@@H]1[C@@]24OO3 [DHA, dihydroartemisinin, reference compound] |  |  |  | effect on parasitemia and parasite cell cycle (F32-ART parasites): high parasitemia decrease
13 | CC(ON1C(C)(C)CCCC1(C)C)c1ccc(NC(=O)[C@@H](Cc2ccccc2)NC(=O)[C@H](NC(=O)[C@@H](Cc2ccccc2)NC(=O)OC(C)(C)C)C(C)C)cc1 (stereo partly drawn) [A3D] |  |  | > 50 µM | IC50 [1, 5]: > 50 µM
14 | CC(C)[C@H](NC(=O)[C@H](Cc1ccccc1)NC(=O)CCC(=O)OCc1ccccc1)C(=O)N[C@@H](Cc1ccccc1)C(=O)O [P12L] | > 10 µM | > 50 µM |  | 
15 | C[C@@H]1CC[C@H]2[C@@H](C)C(=O)O[C@@H]3O[C@@]4(C)CC[C@@H]1[C@]32OO4 [ART, Artemisinin, reference compound] |  |  | > 50 µM | IC50 [1, 5]: 0.031 ± 0.006 µM; Selectivity Index CC50/IC50 [1]: >1500
16 | CCc1ccc(NC(=O)[C@H](Cc2ccccc2)NC(=O)[C@@H](NC(=O)[C@H](Cc2ccccc2)NC(=O)CCC(=O)OCc2ccccc2)C(C)C)cc1 [P23L] | > 10 µM | > 50 µM |  | 
17 | CC(ON(C(C)(C)C)C(C)(C)C)c1ccc(NC(=O)[C@@H](Cc2ccccc2)NC(=O)OC(C)(C)C)cc1 (stereo partly drawn) [A9D] |  |  |  | activation energy Ea ([2]; in t-BuPh): 28.87 kcal/mol; activation energy Ea ([2]; in water/n-PrOH 1/1 v/v): 28.42 kcal/mol
18 | CC(ON(C(C)(C)C)C(C)(C)C)c1ccc(NC(=O)[C@@H](Cc2ccccc2)NC(=O)[C@H](NC(=O)[C@H](N)Cc2ccccc2)C(C)C)cc1 (stereo partly drawn) [AW230] |  |  | 9 ± 1.2 µM | IC50 [1, 5]: 3.73 ± 0.26 µM
19 | CCc1ccc(NC(=O)[C@H](Cc2ccccc2)NC(=O)[C@@H](NC(=O)[C@H](Cc2ccccc2)NC(=O)OC(C)(C)C)C(C)C)cc1 [P21L] | > 50 µM | > 50 µM |  | 
20 | CC(C)[C@@H](NC(=O)[C@H](N)Cc1ccccc1)C(=O)N[C@H](Cc1ccccc1)C(=O)OCc1ccccc1 [P8D] (H-[dF]-[dV]-[dF]-OBn) | > 50 µM |  | > 50 µM | 
21 | CC(ON1C(C)(C)CCCC1(C)C)c1ccc(NC(=O)[C@H](Cc2ccccc2)NC(=O)[C@@H](NC(=O)[C@H](Cc2ccccc2)NC(=O)CCC(=O)OCc2ccccc2)C(C)C)cc1 (stereo partly drawn) [A6L] |  | > 50 µM |  | IC50 [1, 5]: 7 µM; Selectivity Index CC50/IC50 [1]: >6.9; IC50 [1, 6]: 7.2 µM
22 | CCc1ccc(NC(=O)[C@@H](Cc2ccccc2)NC(=O)[C@H](NC(=O)[C@@H](Cc2ccccc2)NC(=O)OC(C)(C)C)C(C)C)cc1 [P21D] | > 50 µM | > 50 µM |  | 
23 | CCc1ccc(NC(=O)[C@H](Cc2ccccc2)NC(=O)[C@@H](NC(=O)[C@@H](N)Cc2ccccc2)C(C)C)cc1 [P22L] | > 10 µM | > 50 µM |  | 
24 | CC(C)[C@@H](NC(=O)[C@@H](Cc1ccccc1)NC(=O)OC(C)(C)C)C(=O)N[C@H](Cc1ccccc1)C(=O)O [P7D] (Boc-[dF]-[dV]-[dF]-OH) | > 10 µM |  | > 50 µM | 
25 | CC(C)[C@@H](NC(=O)[C@H](N)Cc1ccccc1)C(=O)N[C@H](Cc1ccccc1)C(=O)O [P11D] (H-[dF]-[dV]-[dF]-OH; N-terminus and C-terminus assumed) |  |  | > 50 µM | 
26 | CC(C)[C@H](NC(=O)[C@@H](N)Cc1ccccc1)C(=O)N[C@@H](Cc1ccccc1)C(=O)OCc1ccccc1 [P8L] (H-Phe-Val-Phe-OBn) | > 50 µM |  | > 50 µM | 
27 | CC(C)[C@H](NC(=O)[C@H](Cc1ccccc1)NC(=O)CCC(=O)OCc1ccccc1)C(=O)N[C@@H](Cc1ccccc1)C(=O)OCc1ccccc1 [P9L, N-(Bn)succinyl-L-Phe-L-Val-L-Phe–OBn] | > 50 µM |  | > 50 µM | 
28 | CCc1ccc(NC(=O)[C@H](Cc2ccccc2)NC(=O)[C@@H](NC(=O)[C@H](Cc2ccccc2)NC(=O)CCC(=O)O)C(C)C)cc1 [P24L] | > 10 µM | > 50 µM |  | 
29 | O=C1C(O)=C([C@H]2CC[C@H](c3ccc(Cl)cc3)CC2)C(=O)c2ccccc21 [Atovaquone, reference compound] |  |  |  | delay in recrudescence time between DHA 6 h/DHA 48 h and DHA 6 h/(DHA + molecule) 48 h [3]: 11 days
30 | CC(ON(C(C)(C)C)C(C)(C)C)c1ccc(NC(=O)[C@H](Cc2ccccc2)NC(=O)OC(C)(C)C)cc1 (stereo partly drawn) [A9L] |  |  |  | activation energy Ea ([2]; in t-BuPh): 28.8 kcal/mol; activation energy Ea ([2]; in water/n-PrOH 1/1 v/v): 28.42 kcal/mol
